Experimental findings from US20230263822A1, “MODULATION OF FACTOR 11 EXPRESSION” (Ionis Pharmaceuticals, Inc., priority 2008, published 2023) are described below.

One series relates to human Factor 11 mRNA. The series is described as follows: Antisense inhibition of human Factor 11 in HepG2 cells by microwalk gapmers, lipofectin, 75 nM (Example 3). Particulars: HepG2 cells, lipofectin. It counts as cell-based. In a few lines:
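HepG2 cells (10,000/well) were transfected via lipofectin with 75 nM 20-mer MOE gapmers (phosphorothioate, 5-methyl-C) for about 24 h. Factor 11 mRNA was measured by qRT-PCR, normalized to RIBOGREEN total RNA, and given as percent inhibition versus untreated cells.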

In another series the test system is Factor 11 protein. The series is described as follows: Factor 11 protein in monkey plasma by sandwich ELISA (Example 46). The format is in vivo, cynomolgus monkeys. The following applies: for Inhibition of Factor 11 protein relative to the PBS control (percentage reduction): 25 mg/kg subcutaneously. The procedure: (§1) Groups, each consisting of two male and two female monkeys, were injected subcutaneously with 25 mg/kg of ISIS 416850, ISIS 449709, ISIS 445522, ISIS 449710, ISIS 449707, ISIS 449711, ISIS 449708, 416858, and ISIS 445531. Antisense oligonucleotide was administered to the monkeys at 25 mg/kg three times per week for week 1 and 25 mg/kg twice per week for weeks 2 to 8. A control group, consisting of two male and two female monkeys was injected subcutaneously with PBS according to the same dosing regimen. Body weights were taken 14 days and 7 days before the start of treatment and were then measured weekly throughout the treatment period. Blood samples were collected 14 days and 5 days before the start of treatment and subsequently several times during the dosing regimen for PT and aPTT measurements, and measurement of various hematologic factors. On day 55, the monkeys were euthanized by exsanguination while under deep anesthesia, and organs harvested for further analysis.
Plasma samples from all monkey groups taken on different days were analyzed by a sandwich-style ELISA assay (Affinity Biologicals Inc.) using an affinity-purified polyclonal anti-Factor 11 antibody as the capture antibody and a peroxidase-conjugated polyclonal anti-Factor 11 antibody as the detecting antibody. Monkey plasma was diluted 1:50 for the assay. Peroxidase activity was expressed by incubation with the substrate o-phenylenediamine. The color produced was quantified using a microplate reader at 490 nm and was considered to be proportional to the concentration of Factor 11 in the samples.
The results are presented in Table 147, expressed as percentage reduction relative to that of the PBS control.
In general terms: In an ELISA, binding on a coated surface is turned into a signal by an enzyme label.

A short description of series [1]: Liver function, ALT, AST, bilirubin in cynomolgus monkeys (Example 46). It counts as in vivo. The following applies: plasma. The procedure:
as §1
Plasma concentrations of alanine transaminase (ALT) and aspartate transaminase (AST) were measured and the results are presented in Tables 152 and 153 expressed in IU/L. Plasma levels of bilirubin were also measured and results are presented in Table 154 expressed in mg/dL. As observed in Tables 152-154, there were no significant increases in any of the liver metabolic markers after antisense oligonucleotide treatment.

Setting [2] is: gapmers targeted to nucleobases 1275 to 1318 of SEQ ID NO: 1.

Strand notation (5' to 3'): a small letter for the sugar, then the base; units joined by * are phosphorothioate-linked, units joined directly phosphodiester-linked; [ ] holds rarer units or linkages, { } end groups; capitals alone tell only the bases. e = 2'-O-(2-methoxyethyl) (MOE); [5mC] = 5-methylcytosine; d = 2'-deoxy (DNA)

“412206 (antisense e[5mC]*e[5mC]*eG*eT*eG*d[5mC]*dA*dT*d[5mC]*dT*dT*dT*d[5mC]*dT*dT*eG*eG*e[5mC]*eA*eT) [compound 412206]”: the % inhibition (in general, the share of the control response that was lost under treatment) with human Factor 11 mRNA (gapmers targeted to nucleobases 738 to 762 of SEQ ID NO: 1) came to 93%.
In the case of “412223 (antisense ACAGTTTCTGGCAGGCCTCG; 5-10-5 MOE gapmer, further chemistry not given here) [compound 412223]”, the “% inhibition” value with human Factor 11 mRNA (setting [2]) is 85%.
On the same count and under the same terms, as for “412224 (antisense GCATTGGTGCACAGTTTCTG; 5-10-5 MOE gapmer, further chemistry not given here) [compound 412224]”, the figure is 93%; as for “412225 (antisense GCAGCGGACGGCATTGGTGC; 5-10-5 MOE gapmer, further chemistry not given here) [compound 412225]”, 86%.
Same read-out and setting: as for “413482 (antisense GGACGGCATTGGTGCACAGT; 5-10-5 MOE gapmer, further chemistry not given here) [compound 413482]”, the figure is 89%; as for “416856 (antisense GGCATTGGTGCACAGTTTCT; 5-10-5 gapmer, further chemistry not given here) [compound 416856]”, 95%.
As for “445522 (antisense eG*e[5mC]*eA*e[5mC]*eA*dG*dT*dT*dT*d[5mC]*dT*dG*dG*e[5mC]*eA*eG*eG*e[5mC]) [compound 445522]”, the “Inhibition of Factor 11 protein relative to the PBS control (percentage reduction)” value in the series on Factor 11 protein (Day 10, plasma) is reported as 36%; in the series on Factor 11 protein (Day 17, plasma), 50%; in the series with Factor 11 protein (Day 24, plasma) it was 61%; with Factor 11 protein (Day 31, plasma), 70%; in the series on Factor 11 protein (Day 38, plasma), 73%; in the series on Factor 11 protein (Day 45, plasma) it was 77%. The “Inhibition of Factor 11 protein relative to the PBS control (percentage reduction)” value in the series on Factor 11 protein (Day 52, plasma) stood at 80%; in the series with Factor 11 protein (Day 55, plasma), 82%; in the series with Factor 11 protein (Day −5, plasma), 0%; in the series on Factor 11 protein (Day −14, plasma) it was 2%.
In the case of “445531 (antisense eG*eG*e[5mC]*eA*eT*dT*dG*dG*dT*dG*d[5mC]*dA*d[5mC]*eA*eG*eT*eT*eT) [compound 445531]”, the “Inhibition of Factor 11 protein relative to the PBS control (percentage reduction)” value turned out to be 9% with Factor 11 protein (Day 10, plasma); 22% with Factor 11 protein (Day 17, plasma); 23% in the series on Factor 11 protein (Day 24, plasma); 27% in the series with Factor 11 protein (Day 31, plasma); 29% with Factor 11 protein (Day 38, plasma); 32% with Factor 11 protein (Day 45, plasma). For the same substance, the “Inhibition of Factor 11 protein relative to the PBS control (percentage reduction)” value amounted to 32% with Factor 11 protein (Day 52, plasma); 37% with Factor 11 protein (Day 55, plasma); 1% in the series with Factor 11 protein (Day −5, plasma); 0% in the series on Factor 11 protein (Day −14, plasma).
In the case of “ISIS 416850: MOE gapmer, nucleobases 1275 to 1318 of SEQ ID NO: 1 (Table 8) (antisense TGCACAGTTTCTGGCAGGCC; MOE gapmer, wing and gap sizes not given here)”, the “Factor 11 protein levels in plasma” value with Factor 11 protein (cynomolgus monkeys, 25 mg/kg) is reported as “time-dependent decrease in protein levels”. Besides, the ALT in series [1] (Day 31) was determined as 45 IU/L; in series [1] (Day 55), 55 IU/L; in series [1] (Day −5), 42 IU/L; in series [1] (Day −14) it was 48 IU/L. The AST in series [1] (Day 31) amounted to 46 IU/L; in series [1] (Day 55) it was 57 IU/L; in series [1] (Day −5), 45 IU/L; in series [1] (Day −14), 62 IU/L. The Bilirubin stood at 0.26 mg/dL in series [1] (Day 31), 0.17 mg/dL in series [1] (Day 55), 0.22 mg/dL in series [1] (Day −5) and 0.26 mg/dL in series [1] (Day −14).
Regarding “ISIS 445531: 5-8-5 or 6-8-6 MOE microwalk gapmer (Table 44) (antisense eG*eG*e[5mC]*eA*eT*dT*dG*dG*dT*dG*d[5mC]*dA*d[5mC]*eA*eG*eT*eT*eT)”, the ALT in series [1] (Day 31) is on record as 57 IU/L; in series [1] (Day 55), 73 IU/L; in series [1] (Day −5), 73 IU/L; in series [1] (Day −14), 84 IU/L. Also, the AST in series [1] (Day 31) worked out at 47 IU/L; in series [1] (Day 55), 49 IU/L; in series [1] (Day −5) it was 46 IU/L; in series [1] (Day −14) it was 78 IU/L. In addition, the Bilirubin was 0.13 mg/dL in series [1] (Day 31), 0.11 mg/dL in series [1] (Day 55), 0.18 mg/dL in series [1] (Day −5) and 0.22 mg/dL in series [1] (Day −14).
Regarding “ISIS 449707: 3-8-3, 4-8-4, 2-10-2, 3-10-3 or 4-10-4 MOE microwalk gapmer (Table 46) (antisense e[5mC]*eA*e[5mC]*eA*dG*dT*dT*dT*d[5mC]*dT*dG*dG*e[5mC]*eA*eG*eG)”, the ALT in series [1] (Day 31) is on record as 52 IU/L; in series [1] (Day 55) it was 63 IU/L; in series [1] (Day −5), 56 IU/L; in series [1] (Day −14) it was 54 IU/L. Also, the AST in series [1] (Day 31) came to 50 IU/L; in series [1] (Day 55) it was 52 IU/L; in series [1] (Day −5), 53 IU/L; in series [1] (Day −14), 64 IU/L. In addition, the Bilirubin stood at 0.13 mg/dL in series [1] (Day 31), 0.16 mg/dL in series [1] (Day 55), 0.19 mg/dL in series [1] (Day −5) and 0.27 mg/dL in series [1] (Day −14).
Turning to “ISIS 449708: 3-8-3, 4-8-4, 2-10-2, 3-10-3 or 4-10-4 MOE microwalk gapmer (Table 46) (antisense eA*e[5mC]*eA*dG*dT*dT*dT*d[5mC]*dT*dG*dG*e[5mC]*eA*eG)”, the ALT stood at 44 IU/L in series [1] (Day 31), 46 IU/L in series [1] (Day 55), 54 IU/L in series [1] (Day −5) and 48 IU/L in series [1] (Day −14). Further, the AST was determined as 56 IU/L in series [1] (Day 31), 50 IU/L in series [1] (Day 55), 53 IU/L in series [1] (Day −5) and 74 IU/L in series [1] (Day −14). Also, the Bilirubin is recorded as 0.14 mg/dL in series [1] (Day 31), 0.14 mg/dL in series [1] (Day 55), 0.21 mg/dL in series [1] (Day −5) and 0.27 mg/dL in series [1] (Day −14).
Regarding “ISIS 449710: 3-8-3, 4-8-4, 2-10-2, 3-10-3 or 4-10-4 MOE microwalk gapmer (Table 46) (antisense e[5mC]*eA*e[5mC]*dA*dG*dT*dT*dT*d[5mC]*dT*dG*dG*d[5mC]*eA*eG*eG)”, the ALT in series [1] (Day 31) amounted to 37 IU/L; in series [1] (Day 55), 45 IU/L; in series [1] (Day −5), 42 IU/L; in series [1] (Day −14), 37 IU/L. Further, the AST in series [1] (Day 31) came out at 37 IU/L; in series [1] (Day 55), 64 IU/L; in series [1] (Day −5) it was 38 IU/L; in series [1] (Day −14) it was 52 IU/L. The Bilirubin was determined as 0.15 mg/dL in series [1] (Day 31), 0.22 mg/dL in series [1] (Day 55), 0.19 mg/dL in series [1] (Day −5) and 0.24 mg/dL in series [1] (Day −14).
For “ISIS 449711: 3-8-3, 4-8-4, 2-10-2, 3-10-3 or 4-10-4 MOE microwalk gapmer (Table 46) (antisense eA*e[5mC]*dA*dG*dT*dT*dT*d[5mC]*dT*dG*dG*d[5mC]*eA*eG)”, the ALT is listed as 48 IU/L in series [1] (Day 31), 54 IU/L in series [1] (Day 55), 137 IU/L in series [1] (Day −5) and 49 IU/L in series [1] (Day −14). Also, the AST in series [1] (Day 31) was 47 IU/L; in series [1] (Day 55), 47 IU/L; in series [1] (Day −5), 78 IU/L; in series [1] (Day −14), 58 IU/L. For the same substance, the Bilirubin in series [1] (Day 31) was 0.13 mg/dL; in series [1] (Day 55), 0.13 mg/dL; in series [1] (Day −5), 0.16 mg/dL; in series [1] (Day −14), 0.23 mg/dL.
